pIC50: −log10 of the molar value.
Key:
[1] = tested on: MOLM-13; test: Proliferation inhibition, CellTiter-Glo, MOLM-13; assay type: cell-based, human; conditions: Homo sapiens, 96 h; MOLM-13 cells, IC50 (4 days), CellTiter-Glo; read-out: MOLM-13 IC50
Procedure, shortened: (§1)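 About 10,000 cells per well in RPMI-1640 with 10% FBS. Compounds added 2 h after seeding at eight concentrations in duplicate (0.2% DMSO as 100% proliferation), then incubated ~96 h at 37° C, 5% CO2. ATP measured by CellTiter-Glo luminescence; IC50 from four-parameter logistic fit.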

[2] = tested on: MV-4-11; test: Proliferation inhibition, CellTiter-Glo, MV-4-11; assay type: cell-based, human; conditions: Homo sapiens, MV4-11, 96 h; MV-4:11 cells, IC50 (4 days), CellTiter-Glo; read-out: MV-4:11 IC50
Procedure, shortened: as §1

[3] = tested on: K-562; test: Proliferation inhibition, CellTiter-Glo, K-562; assay type: cell-based, human; conditions: Homo sapiens, K562, 96 h; K-562 cells, IC50 (4 days), CellTiter-Glo; read-out: K-562 IC50
Procedure, shortened: as §1

[4] = target: T1, WT FLT3 (Homo sapiens, UniProt P36888); test: WT FLT3 Lance Ultra TR-FRET kinase assay; assay type: biochemical
T1 construct: purchased Invitrogen PR4666C
T1 sequence (P36888 564-993 limits assumed): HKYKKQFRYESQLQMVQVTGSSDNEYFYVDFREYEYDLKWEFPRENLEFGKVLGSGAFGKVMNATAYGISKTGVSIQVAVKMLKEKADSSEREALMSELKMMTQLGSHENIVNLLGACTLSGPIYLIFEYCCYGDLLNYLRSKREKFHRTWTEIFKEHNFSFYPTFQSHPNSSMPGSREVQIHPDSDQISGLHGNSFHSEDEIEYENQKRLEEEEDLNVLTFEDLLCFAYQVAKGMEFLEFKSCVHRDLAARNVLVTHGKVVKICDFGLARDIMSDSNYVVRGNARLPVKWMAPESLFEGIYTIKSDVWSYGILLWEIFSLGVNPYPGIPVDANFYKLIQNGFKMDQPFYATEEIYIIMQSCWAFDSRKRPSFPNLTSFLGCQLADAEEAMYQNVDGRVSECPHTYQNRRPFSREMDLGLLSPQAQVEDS
Source text: (§2) High throughput 384-well Lance Ultra TR-FRET based kinase assays were established for the WT FLT3 and FLT3-ITD enzymes and employed a ULight-labeled peptide […] and FLT3 proteins labelled with Eu-conjugated antibody […] (WuXi Aptec). The principle of TR-FRET is based on transfer of energy between a donor and acceptor fluorophore that results when the fluorophores are within close proximity (˜100 Å) of each other. Recombinant WT FLT3 (#PR4666C, M.W. 48.6 kDa) was purchased from Invitrogen and FLT3-ITD (FLT3-ITD-W51, #F-12-12CG-10, M.W. 76 kDa) was purchased from Signalchem. Optimal assay conditions for the WT FLT3 enzyme assay were as follows: 0.5 nM FLT3 protein, 50 nM ULight-JAK-1 (Tyr1023) substrate peptide (PerkinElmer #TRF0121), 100 μM ATP, 60 min reaction time. Optimal assay conditions for the FLT3-ITD enzyme assay were as follows: 0.0625 nM FLT3-ITD protein, 50 nM ULight-JAK-1 (Tyr1023) substrate peptide, 50 μM ATP, 90 min reaction time. Briefly, 11 dose 3× serial dilutions were prepared for the test compounds and the reference compound and 100 nanoliters transferred to appropriate wells of 384-well assay plates. Five microliters of 2× enzyme/peptide were added into assay wells, assay plates centrifuged at 1000 rpm for about 30 seconds, sealed with sealing film and incubated for 30 min at 23° C. Assay buffer comprised 50 mM HEPES (pH 7.5), 1 mM EDTA, 0.01% Brij-35, 10 mM MgCl2 and 2 mM DTT. Next 5 μl of a 2× ATP mixture were added into the assay wells and the plates centrifuged at 1000 rpm about 30 seconds, sealed with sealing film and incubated for 23° C. for appropriate duration. Following assay incubation (30 min for WT FLT3 and 60 min for FLT3-ITD) 10 μl 2× Detection Mixture (Eu-W1024 Anti-phosphotyrosine (PT66) 2 nM and EDTA 10 mM) was added to assay wells, assay plates centrifuge at 1000 rpm about 1 minutes, sealed with sealing film and incubated at 23° C. for 60 minutes. Assay plates were read on a Perkin Elmer Envision reader at two wavelengths (665/615) and the ratio of […] calculated.
(§3) Data was expressed as % of inhibition relative to the vehicle control and calculated as follows:
(§4) Results were analyzed by XLFIT5 as % inhibition vs. log [compound concentration] and IC50 values were calculated by non-linear regression using four parameter-logistic equation. Fit=(A+((B−A)/(1+((C/x)^D)))). Res=(y−fit).

[5] = target: T2, FLT3-ITD (Homo sapiens, UniProt P36888, DUP595-601); test: FLT3-ITD Lance Ultra TR-FRET kinase assay; assay type: biochemical
T2 construct: purchased Signalchem F-12-12CG-10
T2 sequence (P36888 with tags, fused parts or gaps DUP595-601 limits assumed): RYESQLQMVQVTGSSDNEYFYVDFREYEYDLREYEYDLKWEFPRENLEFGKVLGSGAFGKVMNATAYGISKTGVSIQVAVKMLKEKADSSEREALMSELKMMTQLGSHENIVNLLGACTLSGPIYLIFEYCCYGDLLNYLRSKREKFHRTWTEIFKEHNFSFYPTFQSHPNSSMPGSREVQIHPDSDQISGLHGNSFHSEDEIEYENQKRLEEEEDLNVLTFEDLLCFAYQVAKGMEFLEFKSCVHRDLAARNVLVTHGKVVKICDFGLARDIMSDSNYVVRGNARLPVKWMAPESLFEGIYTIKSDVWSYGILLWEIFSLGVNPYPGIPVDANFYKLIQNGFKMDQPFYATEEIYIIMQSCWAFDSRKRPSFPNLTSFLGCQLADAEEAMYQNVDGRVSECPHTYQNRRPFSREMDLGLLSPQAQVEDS
Source text: as §2, §3, §4

Row | pIC50 [1] | pIC50 [2] | pIC50 [3] | pIC50 [4] | pIC50 [5] | SMILES
1 | 8.00 to 9.00 | 7.00 to 8.00 | < 6.30 | 9.00 to 9.30 | 9.30 to 9.70 | C#Cc1nc(C(N)=O)c(Nc2cccc(CCNC(=O)CN(C)C(=O)/C=C/CN(C)C)c2)nc1N(C)C(C)C [Compound 327, (E)-3-((3-(2-(2-(4-(dimethylamino)-N-methylbut-2-enamido)acetamido)ethyl)phenyl)amino)-6-ethynyl-5-(isopropyl (methyl)amino) pyrazine-2-carboxamide]
2 | 7.00 to 8.00 | > 9.00 | < 6.30 | 9.30 to 9.70 | 9.30 to 9.70 | C=Cc1nc(C(N)=O)c(Nc2cccc(CCNC(=O)CN(C)C(=O)/C=C/CN(C)C)c2)nc1N(C)C(C)C [Compound 328, (E)-3-((3-(2-(2-(4-(dimethylamino)-N-methylbut-2-enamido)acetamido)ethyl)phenyl)amino)-5-(isopropyl(methyl)amino)-6-vinylpyrazine-2-carboxamide]
3 | > 9.00 | > 9.00 | < 6.30 | 9.00 to 9.30 | 9.00 to 9.30 | CCc1nc(C(N)=O)c(Nc2cccc(CCNC(=O)[C@H](C)NC(=O)/C=C/CN(C)C)c2)nc1NC(C)C [Compound 501, (S, E)-3-((3-(2-(2-(4-(dimethylamino)but-2-enamido)propanamido)ethyl)phenyl)amino)-6-ethyl-5-(isopropylamino) pyrazine-2-carboxamide]
4 | > 9.00 | > 9.00 | < 6.30 | 9.70 to 10.00 | 9.30 to 9.70 | CCc1nc(C(N)=O)c(Nc2cccc(CCNC(=O)[C@H](C)NC(=O)/C=C/CN(C)C)c2)nc1N(C)C(C)C [Compound 502, (S,E)-3-((3-(2-(2-(4-(dimethylamino)but-2-enamido)propanamido)ethyl)phenyl)amino)-6-ethyl-5-(isopropyl(methyl)amino) pyrazine-2-carboxamide]
5 | > 9.00 | > 9.00 | < 6.30 | 9.30 to 9.70 | 9.00 to 9.30 | CCc1nc(Nc2cccc([C@@H](C)CNC(=O)CN(C)C(=O)/C=C/CN(C)C)c2)c(C(N)=O)nc1CC [Compound 503, (R, E)-3-((3-(1-(2-(4-(dimethylamino)-N-methylbut-2-enamido)acetamido)propan-2-yl)phenyl)amino)-5,6-diethylpyrazine-2-carboxamide]
6 | > 9.00 | 8.00 to 9.00 | < 6.30 | 9.30 to 9.70 | 9.00 to 9.30 | CCc1nc(C(N)=O)c(Nc2cccc([C@@H](C)CNC(=O)CN(C)C(=O)/C=C/CN3CCC3)c2)nc1C(C)C [Compound 509, (R,E)-3-((3-(1-(2-(4-(azetidin-1-yl)-N-methylbut-2-enamido)acetamido)propan-2-yl)phenyl)amino)-6-ethyl-5-isopropylpyrazine-2-carboxamide]
7 | 7.00 to 8.00 | 7.00 to 8.00 | < 6.30 | < 9.00 | < 9.00 | C=CC(=O)N(C)CC(=O)NCCc1cccc(Nc2nc(CC(C)C)c(CC)nc2C(N)=O)c1 [Compound 510, 6-ethyl-5-isobutyl-3-((3-(2-(2-(N-methylacrylamido)acetamido)ethyl)phenyl)amino) pyrazine-2-carboxamide]
8 | > 9.00 | 8.00 to 9.00 | < 6.30 | 9.30 to 9.70 | ≥ 10.00 | C=CC(=O)N(C)CC(=O)NCCc1cccc(Nc2nc(N(C)CC)c(CC)nc2C(N)=O)c1 [Compound 511, 6-ethyl-5-(ethyl(methyl)amino)-3-((3-(2-(2-(N-methylacrylamido)acetamido)ethyl)phenyl)amino) pyrazine-2-carboxamide]
9 | 8.00 to 9.00 | 7.00 to 8.00 | < 6.30 | 9.00 to 9.30 | 9.30 to 9.70 | C=CC(=O)N(C)CC(=O)NC[C@H](C)c1cccc(Nc2nc(N(C)CC)c(CC)nc2C(N)=O)c1 [Compound 513, (R)-6-ethyl-5-(ethyl (methyl)amino)-3-((3-(1-(2-(N-methylacrylamido)acetamido)propan-2-yl)phenyl)amino) pyrazine-2-carboxamide]
10 | 8.00 to 9.00 | > 9.00 | < 6.30 | 9.00 to 9.30 | 9.70 to 10.00 | C=CC(=O)N(C)CC(=O)NCCc1cc(Nc2nc(N(C)CC)c(CC)nc2C(N)=O)ccn1 [Compound 515, 6-ethyl-5-(ethyl(methyl)amino)-3-((2-(2-(2-(N-methylacrylamido)acetamido)ethyl)pyridin-4-yl)amino) pyrazine-2-carboxamide]
11 | 8.00 to 9.00 | 8.00 to 9.00 | < 6.30 | 9.00 to 9.30 | 9.00 to 9.30 | CCc1nc(C(N)=O)c(Nc2cccc([C@@H](C)CNC(=O)CN(C)C(=O)/C=C/CN3CCC3)c2)nc1CC(C)C [Compound 517, (R, E)-3-((3-(1-(2-(4-(azetidin-1-yl)-N-methylbut-2-enamido)acetamido)propan-2-yl)phenyl)amino)-6-ethyl-5-isobutylpyrazine-2-carboxamide]
12 | 7.00 to 8.00 | 8.00 to 9.00 | < 6.30 | < 9.00 | < 9.00 | CCc1nc(Nc2cccc([C@H](C)CNC(=O)CN(C)C(=O)/C=C/CN3CCC3)c2)c(C(N)=O)nc1CC [Compound 519, (S,E)-3-((3-(1-(2-(4-(azetidin-1-yl)-N-methylbut-2-enamido)acetamido)propan-2-yl)phenyl)amino)-5,6-diethylpyrazine-2-carboxamide]
13 | 8.00 to 9.00 | 8.00 to 9.00 | < 6.30 | < 9.00 | 9.00 to 9.30 | CCc1nc(C(N)=O)c(Nc2ccnc(CCNC(=O)CN(C)C(=O)/C=C/CN3CCC3)c2)nc1C1CC1 [Compound 520, (E)-3-((2-(2-(2-(4-(azetidin-1-yl)-N-methylbut-2-enamido)acetamido)ethyl)pyridin-4-yl)amino)-5-cyclopropyl-6-ethylpyrazine-2-carboxamide]
14 | 8.00 to 9.00 | > 9.00 | < 6.30 | < 9.00 | 9.00 to 9.30 | CCc1nc(C(N)=O)c(Nc2cccc(CCNC(=O)CN(C)C(=O)/C=C/CN3CCC3)c2)nc1CC(C)C [Compound 601, (E)-3-((3-(2-(2-(4-(azetidin-1-yl)-N-methylbut-2-enamido)acetamido)ethyl)phenyl)amino)-6-ethyl-5-isobutylpyrazine-2-carboxamide]

Source: patent US20240262795A1, “PYRAZINE COMPOUNDS AS INHIBITORS OF FLT3” (Biomea Fusion, Inc., priority 2021, published 2024)
